Two molecules from article PMC9120487, “Cryo-EM structures define ubiquinone-10 binding to mitochondrial complex I and conformational transitions accompanying Q-site occupancy” (Nature Communications, 2022) can be followed below.

Test [1] concerns the target T1, bovine mitochondrial complex I (CxI-ND) (Bos taurus, UniProt P03887+P03898+P17694+P42026).
T1 construct: gene NDUFS2; native 45-subunit complex (14 core, 31 supernumerary); NDUFS2 residue 129 modelled as Arg, NDUFA10 residue 255 as Lys; human subunit nomenclature; with NADH dehydrogenase [ubiquinone] flavoprotein 1, mitochondrial; NADH dehydrogenase [ubiquinone] flavoprotein 2, mitochondrial; NADH-ubiquinone oxidoreductase 75 kDa subunit, mitochondrial; NADH dehydrogenase [ubiquinone] iron-sulfur protein 3, mitochondrial; NADH dehydrogenase [ubiquinone] iron-sulfur protein 8, mitochondrial; NADH-ubiquinone oxidoreductase chain 2; NADH-ubiquinone oxidoreductase chain 3; NADH-ubiquinone oxidoreductase chain 4; NADH-ubiquinone oxidoreductase chain 4L; NADH-ubiquinone oxidoreductase chain 5; NADH-ubiquinone oxidoreductase chain 6
As to the kind of experiment: NADH:dQ oxidoreductase activity, […]-380 nm. In kind it is biochemical. The settings on record: DDM-solubilised enzyme; 200 µM dQ, 200 µM NADH, 0.15% asolectin/CHAPS; pH 7.5, 32 °C; piericidin-sensitive rate.

Test [2] deals with T1, bovine mitochondrial complex I (CxI-ND). As to the kind of experiment: cryo-EM structure, […] Å. The conditions noted are these: oxidised resting enzyme in nanodiscs, active state; Q-binding channel between NDUFS2, NDUFS7 and ND1; pH 7.5.

As for `CCCCCCCCCCC1=C(C)C(=O)C(OC)=C(OC)C1=O` [dQ, decylubiquinone], in test [1], the “NADH:dQ oxidoreductase activity, 340-380 nm” value was “piericidin-sensitive NADH:dQ oxidoreductase activity of the DDM-solubilised enzyme before reconstitution”.

As to `COC1=C(OC)C(=O)C(C/C=C(\C)CC/C=C(\C)CC/C=C(\C)CC/C=C(\C)CC/C=C(\C)CC/C=C(\C)CC/C=C(\C)CC/C=C(\C)CC/C=C(\C)CCC=C(C)C)=C(C)C1=O` [Q10, ubiquinone-10], the “cryo-EM structure, 2.84 Å” value in test [2] is on record as “In active-Q10, the Q10 density occupies the entirety of the channel”.
